Assays:
[1] = test system: BRAF monomers in A375 cells; assay: A375 AlphaLISA SureFire pERK1/2 cellular assay (monomer); type: cell-based; conditions: Homo sapiens, A-375; A375 cells, 1 hr; read-out: pERK A375 (1 hr) pIC50 (converted)
Procedure, shortened: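 BRAF^V600E A375 melanoma cells seeded at 30,000/well in DMEM with 10% FBS, dosed without medium exchange in a 10-point series from 10 μM at 1/2-log steps, 1 h at 37 °C. Phospho-ERK1/2 (Thr202/Tyr204) measured in lysates by AlphaLISA SureFire; absolute IC50 relative to DMSO control.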

[2] = test system: RAF dimers in HCT-116 cells; assay: HCT-116 AlphaLISA SureFire pERK1/2 cellular assay (dimer); type: cell-based; conditions: Homo sapiens, HCT-116; HCT116 cells pre-dosed with 1 μM Encorafenib, 1 hr; read-out: pERK HCT116 dimer (1 hr) pIC50 (converted)
Procedure, shortened: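 HCT-116 (KRAS G13D) cells, 30,000/well, pretreated 1 h with 1 μM Encorafenib to induce RAF dimers, washed, then dosed 1 h at 37° C with compound (10-point, top 10 μM, 1/2 log steps) in growth medium. pERK1/2 (T202/Y204) measured by AlphaLISA SureFire; absolute IC50 versus DMSO control.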

[3] = Microsomal stability assay, human liver microsomes (HLM); type: in vitro ADME; conditions: 0.5 mg/mL protein, 1 μM substrate
Procedure, shortened: (§1)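 Half-life and CLint come from the ln(% remaining)–time slope, with remaining compound quantified by LC-MS/MS after ice-cold solvent quench of timed samples. Incubations used 1 μM test compound and 0.5 mg·mL^−1 human or mouse liver microsomal protein at 37° C.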

[4] = Microsomal stability assay, mouse liver microsomes (MLM); type: in vitro ADME; conditions: 0.5 mg/mL protein, 1 μM substrate
Procedure, shortened: as §1

[5] = Plasma protein binding assay, human plasma (hPPB); type: in vitro ADME; conditions: 5 μM, equilibrium dialysis 4 hours 37° C.
Procedure, shortened: (§2)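 Equilibrium dialysis of 5 μM compound in previously frozen human or mouse plasma against phosphate buffer, 4 h at 37 °C. Both chambers quantified by LC-MS/MS; % free = (1−((PC−PF)/PC))×100.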

[6] = Plasma protein binding assay, mouse plasma (mPPB); type: in vitro ADME; conditions: 5 μM, equilibrium dialysis 4 hours 37° C.
Procedure, shortened: as §2

[7] = Solubility (Sol), medium not stated; type: physicochemical; conditions: cells not marked (FESSIF)

Row | SMILES | IC50 [1] [nM] | IC50 [2] [nM] | microsomal CLint at 1 μM [3] [µL/min/mg] | microsomal CLint at 1 μM [4] [µL/min/mg] | hPPB (% free) [5] [% free] | mPPB (% free) [6] [% free] | Sol [7] [mg/L]
1 | Cc1cccc(-c2c[nH]c(C3COc4ccc(Oc5ccnc6c5CCC(=O)N6)cc4C3)n2)c1 (stereo not shown) [Compound 14, 5-[3-[4-(m-tolyl)-1H-imidazol-2-yl]chroman-6-yl]oxy-3,4-dihydro-1H-1,8-naphthyridin-2-one] | 18.2 | 75.9 | 60.7 | 51.3 | 0.1 | 0.5 | <1.1
2 | O=C1CCc2c(Oc3ccc4c(c3)CC(c3nc(-c5cccc(F)c5)c[nH]3)CO4)ccnc2N1 (stereo not shown) [Compound 15, 5-[3-[4-(3-fluorophenyl)-1H-imidazol-2-yl]chroman-6-yl]oxy-3,4-dihydro-1H-1,8-naphthyridin-2-one] | 24 | 67.6 | 39.9 | 33.9 | 0.2 | 1.3 | <1.1
3 | Cc1cc(C(F)(F)F)cc2nc(C3COc4ccc(Oc5ccnc6c5CCC(=O)N6)cc4C3)[nH]c12 (stereo not shown) [Compound 31] | 126 | 871 | 34.6 | 26 | <0.1 | 0.2 | <1.2
4 | O=C1CCc2c(Oc3ccc4c(c3)CC(c3nc(-c5cc(F)ccc5F)c[nH]3)CO4)ccnc2N1 (stereo not shown) [Compound 5, 5-[3-[4-(2,5-difluorophenyl)-1H-imidazol-2-yl]chroman-6-yl]oxy-3,4-dihydro-1H-1,8-naphthyridin-2-one] | 186 | 191 | 33.9 | 28.5 | 0.3 | 0.4 | <1.2

Source: patent publication US12304912B2, “Fused bicyclic RAF inhibitors and methods for use thereof” (Jazz Pharmaceuticals Ireland Limited, priority 2020, dated 2025)
